This is an account of results in the supplement of paper PMC5412046.

Test [1] relates to SB.msgc-1. Nature of the test: area under the dose-response curve of % viability (trapezoidal, 11 doses) (% viability x log10 concentration); higher = less cytotoxic. The settings on record: SB.msgc-1 (sporadic gastric cancer). An outline of the steps: (§1)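 A pintool delivered 23 nL of compound in DMSO to 1536-well plates holding 500 hereditary or sporadic patient-derived gastric cancer cells in 5 μL medium per well, at 11 concentrations in threefold steps. Following 48 h of exposure, cells were treated with CellTiter-Glo for 30 min at room temperature, and plates were read for luminescence on a ViewLux. The reported measure is viability normalised to DMSO, either at the top concentration or as trapezoidal area under the curve.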

Test [2] deals with SB.mhdgc-1. The test is described as above. The conditions noted are these: SB.mhdgc-1 (hereditary c.1380delA CDH1 gastric cancer). An outline of the steps: as §1
The subject of test [3] is SB.msgc-1. Nature of the test: viability at highest tested concentration (MAXR) relative to DMSO; higher = less cytotoxic. The conditions noted are these: SB.msgc-1 (sporadic gastric cancer). An outline of the steps: as §1
Test [4] has as its system SB.mhdgc-1. Described as above. The conditions noted are these: SB.mhdgc-1 (hereditary c.1380delA CDH1 gastric cancer). In short, it runs like this:
as §1

Each structure is given as a SMILES string. Structures can show the parent of a compound that is named as a salt.

For `O=C(NCC1CCCCN1)c1cc(OCC(F)(F)F)ccc1OCC(F)(F)F` (configuration not stated) [Flecainide] (top concentration 46.0829 µM), the figures for the “area under the dose-response curve” value in test [1] and in test [2] were 499 and 456, respectively. In addition, the viability – broadly, a read-out of living cells in per cent, often relative to untreated cells – in test [3] is 7.7%; in test [4], 3.79%.
For `CN1CCN(c2c(F)cc3c(=O)c(C(=O)O)cn(CCF)c3c2F)CC1` [Fleroxacin] (top concentration 46.0829 µM) the same measures were 527, 497, 80.3% and 106%.
On to `OC[C@H]1O[C@H](C[C@@H]1O)N2\C=C(F)/C(=O)NC2=O` [Floxuridine] (top concentration 46.0829 µM), for which the results for the “area under the dose-response curve” value in test [1] and in test [2] were 369 and 322, respectively. In addition, the viability stood at 31.9% in test [3] and 49.2% in test [4].
For `COC(=O)Nc1nc2cc(C(=O)c3ccc(F)cc3)ccc2[nH]1` [Flubendazole] (top concentration 46.0829 µM), the “area under the dose-response curve” value was 308 in test [1] and 419 in test [2]. Besides, the viability is 17.7% in test [3] and 19.6% in test [4].
In the same order, the values of `OC(Cn1cncn1)(Cn1cncn1)c1ccc(F)cc1F` [Fluconazole] (top concentration 46.0829 µM) are 596, 573, 106% and 118%.
For `NC/1=N/C(=O)N/C=C1F` [Flucytosine] (top concentration 46.0829 µM) the same measures were 480, 495, 68.6% and 50.3%.
In the same order, the values of `Nc1nc(F)nc2c1ncn2[C@@H]1O[C@H](COP(=O)(O)O)[C@@H](O)[C@@H]1O` [Fludarabine phosphate] (top concentration 46.0829 µM) are 524, 490, 47.7% and 35.8%.
Consider `CCOC(=O)c1ncn2c1CN(C)C(=O)c1cc(F)ccc1-2` [Flumazenil] (top concentration 46.0829 µM), for which the “area under the dose-response curve” value was found to be 583 in test [1] and 512 in test [2]. Also, the viability in test [3] was determined as 88%; in test [4], 40.2%.
In the same order, the values of `Fc1ccc(C(c2ccc(F)cc2)N2CCN(C/C=C/c3ccccc3)CC2)cc1` [Flunarizine] (top concentration 46.0829 µM) are 529, 574, 74.7% and 88%.
In the same order, the values of `CC1(C)OC2CC3C4CC(F)C/5=C/C(=O)/C=C\C5(C)C4C(O)CC3(C)[C@@]2(O1)C(=O)CO` (some centres not stated) [Flunisolide] (top concentration 46.0829 µM) are 573, 609, 121% and 122%.
Consider `CC1(C)O[C@@H]2C[C@H]3[C@@H]4C[C@H](F)C5=CC(=O)C=C[C@]5(C)[C@@]4(F)[C@@H](O)C[C@]3(C)[C@]2(C(=O)CO)O1` [Fluocinolone acetonide] (top concentration 46.0829 µM), for which the “area under the dose-response curve” value in test [1] is 558; in test [2], 454. The figures for the viability in test [3] and in test [4] were 67.3% and 48.3%, respectively.
For `CC(=O)OCC(=O)[C@@]12OC(C)(C)O[C@@H]1C[C@H]3[C@@H]4C[C@H](F)C/5=C/C(=O)/C=C\[C@]5(C)[C@@]4(F)[C@@H](O)C[C@]23C` [Fluocinonide] (top concentration 46.0829 µM) the same measures were 549, 583, 131% and 120%.
For `F\C1=C\NC(=O)NC1=O` [Fluorouracil] (top concentration 46.0829 µM) the same measures were 449, 380, 45.2% and 43.1%.
For `OCCN1CCN(CCCN2c3ccccc3Sc3ccc(C(F)(F)F)cc32)CC1` [Fluphenazine hydrochloride] (top concentration 46.0829 µM), the “area under the dose-response curve” value in test [1] is 497; in test [2] it was 461. Further, the figures for the viability in test [3] and in test [4] were 49.1% and 6.36%, respectively.
With `CCOC(=O)Nc1ccc(NCc2ccc(F)cc2)nc1N` [Flupirtine maleate] (top concentration 46.0829 µM), the “area under the dose-response curve” value in test [1] was found to be 539; in test [2], 574. The viability in test [3] was 81.6%; in test [4] it was 131%.
For `CC(C(=O)O)c1ccc(-c2ccccc2)c(F)c1` (configuration not stated) [Flurbiprofen] (top concentration 46.0829 µM) the same measures were 363, 438, 32.6% and 31.8%.
For `CC(C)C(=O)Nc1ccc([N+](=O)[O-])c(C(F)(F)F)c1` [Flutamide] (top concentration 46.0829 µM), the results for the “area under the dose-response curve” value in test [1] and in test [2] were 401 and 378, respectively. In addition, the results for the viability in test [3] and in test [4] were 4.49% and 4.9%, respectively.
For `CCC(=O)O[C@@]1([C@H](C)C[C@H]2[C@@H]3C[C@H](F)\C4=C\C(=O)\C=C/[C@]4(C)[C@@]3(F)[C@@H](O)C[C@]12C)C(=O)SCF` [Fluticasone propionate] (top concentration 46.0829 µM) the same measures were 541, 519, 41.4% and 32.2%.
